Results as given in ChEMBL document CHEMBL1201861, “Genomics of Drug Sensitity in Cancer screening data, Wellcome Trust Sanger Institute”.

Columns and labels:
Test in all cases: cells
Type in all cases: functional, cell-based, Homo sapiens
[1] = test system: GAMG; details: Homo sapiens, GAMG;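 note: cell growth inhibition measured by a viability assay in the GAMG human cell line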
Description: SANGER: Inhibition of human GAMG cell growth in a cell viability assay.

[2] = test system: NCI-H630; details: Homo sapiens, NCI-H630;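 note: growth inhibition of NCI-H630 cells, read out with a cell viability assay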
Description: SANGER: Inhibition of human NCI-H630 cell growth in a cell viability assay.

[3] = test system: KOSC-2; details: Homo sapiens, KOSC-2;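 note: growth inhibition of KOSC-2 cells, read out by a cell viability assay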
Description: SANGER: Inhibition of human KOSC-2 cell growth in a cell viability assay.

[4] = test system: CWR22R; details: Homo sapiens, 22Rv1;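 note: growth inhibition of 22Rv1 cells, read out with a cell viability assay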
Description: SANGER: Inhibition of human 22RV1 cell growth in a cell viability assay.

[5] = test system: AN3-CA; details: Homo sapiens, AN3-CA;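 note: growth inhibition of human AN3-CA cells measured by a cell viability assay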
Description: SANGER: Inhibition of human AN3-CA cell growth in a cell viability assay.

[6] = test system: CAL-39; details: Homo sapiens, CAL-39;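 note: cell viability assay measuring growth inhibition of CAL-39 cells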
Description: SANGER: Inhibition of human CAL-39 cell growth in a cell viability assay.

[7] = test system: SNU-449; details: Homo sapiens, SNU-449
Description: SANGER: Inhibition of human SNU-449 cell growth in a cell viability assay.

[8] = test system: NY; details: Homo sapiens, NY
Description: SANGER: Inhibition of human NY cell growth in a cell viability assay.

[9] = test system: MFE-280; details: Homo sapiens, MFE-280;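 note: growth inhibition of MFE-280 cells, determined with a cell viability readout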
Description: SANGER: Inhibition of human MFE-280 cell growth in a cell viability assay.

[10] = test system: M14; details: Homo sapiens, M14;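 note: growth inhibition of M14 cells, read out with a cell viability assay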
Description: SANGER: Inhibition of human M14 cell growth in a cell viability assay.

[11] = test system: SKG-IIIa; details: Homo sapiens, SKG-IIIa;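 note: cell growth inhibition, read out with a cell viability assay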
Description: SANGER: Inhibition of human SKG-IIIa cell growth in a cell viability assay.

[12] = test system: HPAF-II; details: Homo sapiens, HPAF-II;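 note: growth inhibition of HPAF-II cells, read out with a cell viability assay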
Description: SANGER: Inhibition of human HPAF-II cell growth in a cell viability assay.

[13] = test system: D-336MG; details: Homo sapiens, D-336MG
Description: SANGER: Inhibition of human D-336MG cell growth in a cell viability assay.

[14] = test system: HLE; details: Homo sapiens, HLE;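 note: growth inhibition of human HLE cells, read out by a cell viability assay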
Description: SANGER: Inhibition of human HLE cell growth in a cell viability assay.

[15] = test system: SW1573; details: Homo sapiens, SW1573;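 note: growth inhibition of SW1573 cells, read out with a cell viability assay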
Description: SANGER: Inhibition of human SW1573 cell growth in a cell viability assay.

[16] = test system: BFTC-909; details: Homo sapiens, BFTC-909
Description: SANGER: Inhibition of human BFTC-909 cell growth in a cell viability assay.

[17] = test system: RCM-1; details: Homo sapiens, RCM-1;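 note: growth inhibition of the RCM-1 line, determined with a cell viability readout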
Description: SANGER: Inhibition of human RCM-1 cell growth in a cell viability assay.

[18] = test system: MC-IXC; details: Homo sapiens, MC-IXC;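 note: growth inhibition of MC-IXC cells, read out with a cell viability assay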
Description: SANGER: Inhibition of human MC-IXC cell growth in a cell viability assay.

[19] = test system: MKN-45; details: Homo sapiens, MKN-45;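 note: growth inhibition of human MKN-45 cells, measured with a cell viability assay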
Description: SANGER: Inhibition of human MKN45 cell growth in a cell viability assay.

[20] = test system: ABC-1; details: Homo sapiens, ABC-1;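 note: growth inhibition of human ABC-1 cells, read out by a cell viability assay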
Description: SANGER: Inhibition of human ABC-1 cell growth in a cell viability assay.

[21] = test system: Daoy; details: Homo sapiens, Daoy;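 note: daoy cell growth inhibition, read out as cell viability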
Description: SANGER: Inhibition of human Daoy cell growth in a cell viability assay.

[22] = test system: CP50-MEL-B; details: Homo sapiens, CP50-MEL-B;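 note: growth inhibition of the human cell line, measured with a cell viability read-out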
Description: SANGER: Inhibition of human CP50-MEL-B cell growth in a cell viability assay.

[23] = test system: SK-LU-1; details: Homo sapiens, SK-LU-1;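 note: cell viability assay measuring growth inhibition of human SK-LU-1 cells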
Description: SANGER: Inhibition of human SK-LU-1 cell growth in a cell viability assay.

[24] = test system: SW 1116; details: Homo sapiens, SW 1116;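 note: growth inhibition of SW1116 cells, read out with a cell viability assay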
Description: SANGER: Inhibition of human SW1116 cell growth in a cell viability assay.

[25] = test system: NCI-H1048; details: Homo sapiens, NCI-H1048;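 note: growth inhibition of human NCI-H1048 cells, read out with a cell viability assay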
Description: SANGER: Inhibition of human NCI-H1048 cell growth in a cell viability assay.

[26] = test system: MDA-MB-175-VII; details: Homo sapiens, MDA-MB-175-VII
[27] = test system: HCT-116; details: Homo sapiens, HCT-116
Description: SANGER: Inhibition of human HCT-116 cell growth in a cell viability assay.

[28] = test system: ESS-1; details: Homo sapiens, ESS-1;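 note: growth inhibition of human ESS-1 cells, read out by a cell viability assay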
Description: SANGER: Inhibition of human ESS-1 cell growth in a cell viability assay.

[29] = test system: NCI-H2452; details: Homo sapiens, NCI-H2452;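 note: growth inhibition of NCI-H2452 cells, read out with a cell viability assay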
Description: SANGER: Inhibition of human NCI-H2452 cell growth in a cell viability assay.

[30] = test system: OVCAR-5; details: Homo sapiens, OVCAR-5;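 note: growth inhibition of human OVCAR-5 cells, read out with a cell viability assay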
Description: SANGER: Inhibition of human OVCAR-5 cell growth in a cell viability assay.

[31] = test system: NCI-H1563; details: Homo sapiens, NCI-H1563;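 note: growth inhibition of human NCI-H1563 cells, read out with a cell viability assay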
Description: SANGER: Inhibition of human NCI-H1563 cell growth in a cell viability assay.

Row | SMILES | IC50 [1] [nM] | IC50 [2] [nM] | IC50 [3] [nM] | IC50 [4] [nM] | IC50 [5] [nM] | IC50 [6] [nM] | IC50 [7] [nM] | IC50 [8] [nM] | IC50 [9] [nM] | IC50 [10] [nM] | IC50 [11] [nM] | IC50 [12] [nM] | IC50 [13] [nM] | IC50 [14] [nM] | IC50 [15] [nM] | IC50 [16] [nM] | IC50 [17] [nM] | IC50 [18] [nM] | IC50 [19] [nM] | IC50 [20] [nM] | other results
1 | CO[C@H]1C[C@@H]2CC[C@@H](C)[C@@](O)(O2)C(=O)C(=O)N2CCCC[C@H]2C(=O)O[C@H]([C@H](C)C[C@@H]2CC[C@@H](OC(=O)C(C)(CO)CO)[C@H](OC)C2)CC(=O)[C@H](C)/C=C(\C)[C@@H](O)[C@@H](OC)C(=O)[C@H](C)C[C@H](C)/C=C/C=C/C=C/1C [TEMSIROLIMUS] | 3.82 | > 200 | 167 | > 200 | 56.9 | 40.1 | > 200 | > 200 | > 200 | > 200 | > 200 | > 200 | 76 | 53.9 | > 200 | > 200 | > 200 | > 200 | > 200 | > 200 | IC50 [21]: 51.7 nM; IC50 [22]: > 200 nM; IC50 [23]: 102 nM; IC50 [24]: > 200 nM; IC50 [25]: > 200 nM; IC50 [26]: > 200 nM; IC50 [27]: > 200 nM; IC50 [28]: > 200 nM; IC50 [29]: > 200 nM; IC50 [30]: 124 nM; IC50 [31]: 106 nM
2 | CCN(CC)CCCCNc1ncc2cc(-c3cc(OC)cc(OC)c3)c(NC(=O)NC(C)(C)C)nc2n1 [PD-173074] | > 2000 | > 2000 | > 2000 | > 2000 | 401 | > 2000 | > 2000 | > 2000 | 859 | > 2000 | > 2000 | > 2000 | > 2000 | > 2000 | > 2000 | > 2000 | > 2000 | > 2000 | > 2000 | > 2000 | IC50 [21]: > 2000 nM; IC50 [22]: > 2000 nM; IC50 [23]: > 2000 nM; IC50 [24]: > 2000 nM; IC50 [25]: > 2000 nM; IC50 [26]: > 2000 nM; IC50 [27]: > 2000 nM; IC50 [28]: > 2000 nM; IC50 [29]: > 2000 nM; IC50 [30]: > 2000 nM; IC50 [31]: > 2000 nM
3 | COc1cc2c(Nc3ccc(NC(=O)c4ccccc4)cc3)ncnc2cc1OCCCN1CCOCC1 | > 4000 | > 4000 | > 4000 | > 4000 | > 4000 | > 4000 | > 4000 | > 4000 | 3410 | > 4000 | > 4000 | > 4000 | > 4000 | > 4000 | > 4000 | > 4000 | > 4000 | > 4000 | > 4000 | 1400 | IC50 [21]: > 4000 nM; IC50 [22]: > 4000 nM; IC50 [23]: > 4000 nM; IC50 [24]: > 4000 nM; IC50 [25]: 1800 nM; IC50 [26]: > 4000 nM; IC50 [27]: 1810 nM; IC50 [28]: > 4000 nM; IC50 [29]: > 4000 nM; IC50 [30]: > 4000 nM; IC50 [31]: > 4000 nM
4 | CS(=O)(=O)c1ccc(C(=O)Nc2ccc(Cl)c(-c3ccccn3)c2)c(Cl)c1 [VISMODEGIB] | > 10000 | > 10000 | > 10000 | > 10000 | > 10000 | > 10000 | > 10000 | > 10000 | > 10000 | > 10000 | > 10000 | > 10000 | > 10000 | > 10000 | > 10000 | > 10000 | > 10000 | > 10000 | > 10000 | > 10000 | IC50 [21]: > 10000 nM; IC50 [22]: > 10000 nM; IC50 [23]: > 10000 nM; IC50 [24]: > 10000 nM; IC50 [25]: > 10000 nM; IC50 [26]: > 10000 nM; IC50 [27]: > 10000 nM; IC50 [28]: > 10000 nM; IC50 [29]: > 10000 nM; IC50 [30]: > 10000 nM; IC50 [31]: > 10000 nM
5 | Nc1cccc2c1CN(C1CCC(=O)NC1=O)C2=O (stereo unspecified) [LENALIDOMIDE] | > 5000 | > 5000 | > 5000 | > 5000 | > 5000 | > 5000 | > 5000 | > 5000 | > 5000 | > 5000 | > 5000 | > 5000 | > 5000 | > 5000 | > 5000 | > 5000 | > 5000 | > 5000 | > 5000 | > 5000 | IC50 [21]: > 5000 nM; IC50 [22]: > 5000 nM; IC50 [23]: > 5000 nM; IC50 [24]: > 5000 nM; IC50 [25]: > 5000 nM; IC50 [26]: > 5000 nM; IC50 [27]: > 5000 nM; IC50 [28]: > 5000 nM; IC50 [29]: > 5000 nM; IC50 [30]: > 5000 nM; IC50 [31]: > 5000 nM
6 | Cc1cn(-c2cc(NC(=O)c3ccc(C)c(Nc4nccc(-c5cccnc5)n4)c3)cc(C(F)(F)F)c2)cn1 [NILOTINIB] | > 2000 | > 2000 | > 2000 | > 2000 | > 2000 | > 2000 | > 2000 | > 2000 | > 2000 | > 2000 | > 2000 | > 2000 | > 2000 | > 2000 | > 2000 | > 2000 | > 2000 | > 2000 | > 2000 | > 2000 | IC50 [21]: > 2000 nM; IC50 [22]: > 2000 nM; IC50 [23]: > 2000 nM; IC50 [24]: > 2000 nM; IC50 [25]: > 2000 nM; IC50 [26]: > 2000 nM; IC50 [27]: > 2000 nM; IC50 [28]: > 2000 nM; IC50 [29]: > 2000 nM; IC50 [30]: > 2000 nM; IC50 [31]: > 2000 nM
